From patent US20050214413A1, “Methods and compositions for modified release of nutritional supplements” (Mannatech, Inc., priority 2003, published 2005) come the findings set out here.

Common to all, as to format: biochemical
One test in a line: ORAC(fl-lipo) assay. The source says:
FIGS. 12A and 12B are graphs of ORAC(fl-lipo) results using mixed-tocopherol and the relative AUC results using the solvent/water/detergent solution to dissolve the sample and detect both lipohilic and lipophobic anti-oxidant capacity.

Test [1] can be described thus: ORAC(fl) assay (fluorescein, method of Ou et al.). The conditions noted are these: mixed at different ratios with quercetin, standard acetone:water. The procedure:
Prior Art Method of Measuring Antioxidant Activity for Comparison. For the ORAC(fl) assay, the method of Ou et al. (Ou , B., Hampsch-Woodill, M. and Prior, R. L., J. Agric. Food Chem. 2001, 49, 4619-4626) was followed. Differences from the Ou procedure as published included the speed of the orbital shaker (Ou, 400 rpm; herein, 280 rpm), and the centrifuge speed (Ou, 14,000 rpm, 15 min; herein, 3200 rpm, 15 min and the length of the assay (Ou, 30 min; herein, 100 min). Fluorescein, sodium salt, was obtained from Aldrich (Milwaukee, Wis.). For the Ou method, a standard amount of fluorescein is added to an antioxidant product being tested, and the beginning level of fluorescence is measured. A free radical initiator is added, and the time and degree of disappearance of fluorescence are measured. Trolox®, 6-Hydroxy-2,5,7,8-tetramethylchroman-2-carboxylic Acid, is a cell-permeable, water-soluble derivative of vitamin E with potent antioxidant properties. Trolox® prevents peroxynitrite-mediated oxidative stress and apoptosis in rat thymocytes and is a synthetic antioxidant that is consistent from lot-to-lot and is used as the standard and run for comparison with each sample. A blank (control) used in calculations of the ORAC(o) value for each samples may be included in each run. Fluorescence vs. time is plotted. The blank (control) is subtracted from every curve. […]

A short description of test [2]: ORAC(o) assay (dissolved oxygen, oxygen radical absorbance capacity). The procedure: Method of Measuring Antioxidant Activity. In operation, the ORAC(o) assay of the present invention was used to evaluate antioxidant compositions, combinations and the like of solutions against a target molecule (linoleic acid) with oxygen present at equilibrium with the air. A free radical initiator is added and the time it takes for oxygen to disappear is measured, yielding the rate of disappearance. Trolox® is used as the standard, and a blank is run as a control. Amount of dissolved oxygen vs. time is plotted allowing direct comparison of net areas under the curve. A detailed method is as follows: Buffers (K2HPO4 (F.W. 174.2), NaH2PO4 (FW 120.0)) were obtained from Sigma (St. Louis, Mo.). Linoleic acid 99%, Trolox® (6-hydroxy-2,5,7,8-tetramethylchroman-2-carboxylic acid) 97%, TWEEN® 20, and 2,2'-azobis (2-methylpropionamidine) dihydrochloride 97% (AAPH), were obtained from Aldrich (Milwaukee, Wis.). HPLC grade acetone was obtained from Fisher (Hampton, […] biological oxygen meter was obtained from YSI (Yellow Springs, Ohio) and used according to the manufacturer's specifications. ORAC(o) Method. The following stock solutions were used. […] Weigh 65.33 g into 500 mL of volumetric flask, and add dH20 to the mark. Concentration is 750 mM. Store 750 mM K2HPO4 stock solution in a refrigerator (2 to 8° C.) equipped with a calibrated thermometer. Target temperature is 4° C. 750 mM NaH2PO4 (FW 120.0); Weigh 45.00 g into 500 mL of volumetric flask, and add dH20 to the mark. Concentration is 750 mM. Store 750 mM NaH2PO4 stock solution in a refrigerator (2 to 8° C.) equipped with a calibrated thermometer. Target temperature is 4° C. Mix 40 ml of 750 mM K2HPO4 stock solution and 10 ml of 750 mM NaH2PO4 stock solution (4 to 1 ratio). […] Store stock solution in a refrigerator (2 to 8° C.) equipped with a calibrated thermometer. Target temperature is 4° C. Dilute mixture with dH20 (1:9) to make working solution of ORAC buffer, and measure pH. It should be 7.4. Keep covered at room temperature until ready to use. Tween Preparation. Weigh out 10 g of Tween 20, and add 90 g of deionized water. Cover and stir the mixture overnight. Tween stock solution keeps for one week. Keep on countertop. Solvent Preparation. Mix 25 mL of acetone, 25 mL of deionized water, and 25 mL of Tween 20. Use this solvent to prepare samples. Before a run is performed: the probe should be inspected for damage paying particular attention to the membrane, replace if needed. Probes should be stored with the tips in deionized water. Only one probe and one reaction chamber should be used for this assay. Run a blank and Trolox® (at 10 μg/ml or 0.03995 μmol/ml) every 8 hours. […] The sample concentration and Trolox® concentration should be the same. The dilutions are prepared by weighing out 1 mg of sample and adding 1 ml of solvent to perform the initial extraction. Shake for one hour, place 0.5 ml of the initial extraction solution in a glass scintillation vial, and then add 4.5 ml of solvent, making the first dilution. Vortex the first dilution for about 30 seconds. Its concentration is 0.1 mg/ml or 100 ppm. Take 0.5 ml of the first dilution, put it into another glass scintillation vial, and then add 4.5 ml of solvent, vortex for about 30 seconds, to yield a concentration of 0.01 mg/ml or 10 ppm. Take 0.5 ml of the vial sample and put it into another glass scintillation vial, and then add 4.5 ml of solvent, vortex for about 30 seconds, to yield a concentration of […] are placed in a 4° C. refrigerator. In a 37° C. water bath allow linoleic acid to thaw, and prepare linoleic acid solution (with minimal light) by adding 0.18 mL Tween stock solution, 0.18 mL buffer, and 0.44 mL deionized water to 70.8 mg linoleic acid. Keep solution tube wrapped in foil. Make linoleic acid solution fresh every 8 hours. To prepare the oxygen radical generator, weigh 67.8 mg of AAPH, and dissolve in 0.9 mL buffer. Keep AAPH refrigerated, it may be used for up to eight hours. Shake for 1 hour. […]

Structures are written as SMILES. Several values for one entry are separate records, joined by “and”; a condition that tells them apart may be missing. Equal entries are not always repeated. Entries after “also recorded” stand apart in the source; their conditions may differ.

In the case of `Cc1c(C)c2c(c(C)c1O)CC[C@@](C)(CCC[C@H](C)CCC[C@H](C)CCCC(C)C)O2` [α-tocopherol], the “ORAC(fl-lipo) AUC, acetone:water:Tween-20 versus acetone:water” value in “ORAC(fl-lipo) assay” is “large increase in the AUC”. Further, in test [1], the “contribution to AO activity” value is recorded as “no contribution to AO activity; also recorded: no statistically significant activity could be detected”.

As to `O=c1c(O)c(-c2ccc(O)c(O)c2)oc2cc(O)cc(O)c12` [quercetin], the “Area Under Curve (AUC), 5 Day Mean” value in test [2] (quercetin sample 10 μg/mL) came to 203.7. In test [2] (quercetin sample 10 μg/mL), the “Area under curve, 5 Run Mean” value was determined as 202.9. For the same compound, the “Area Under Curve (AUC), 5 day trial for precision” value in test [2] (quercetin sample 10 μg/mL, each day average of 3 runs) is 202.7 and 212.9 and 187 and 202.9 and 213.1. The “Area under curve, single day trial for precision” value in test [2] (quercetin sample 10 μg/mL, separate runs) was 207.4 and 198.2 and 205 and 201.6 and 202.1. Moreover, the “Area Under Curve” value in test [2] (sample 1 μg/ml) was found to be 124.6; in test [2] (sample 10 μg/ml) it was 209.4; in test [2] (sample 100 μg/ml), 693.6; in test [2] (sample 500 μg/ml), 2328; in test [2] (sample 1000 μg/ml), 2870.
